According to ChEMBL document CHEMBL3865816, “Design, synthesis and biological evaluation of novel azaspiro analogs of linezolid as antibacterial and antitubercular agents” (Eur J Med Chem, 2016):
Values after ≈ are worked out from the molar mass of the structure shown.

Key:
Assay type in all cases: functional
[1] = tested on: Mycobacterium tuberculosis; experiment: Antitubercular activity against dormant stage Mycobacterium tuberculosis H37Ra at 10 ug/ml measured after 12 days by XTT assay; details: 288 h
Bacillus subtilis [2] = experiment: Antibacterial activity against Bacillus subtilis NCIM 2010 measured after 12 hrs by spectrophotometric method; details: NCIM 2010, 12 h
Escherichia coli [3] = experiment: Antibacterial activity against Escherichia coli NCIM 2688 at 3 ug/ml measured after 8 hrs by spectrophotometric method; details: NCIM 2688, 8 h
Bacillus subtilis [4] = experiment: Antibacterial activity against Bacillus subtilis NCIM 2010 at 3 ug/ml measured after 12 hrs by spectrophotometric method; details: NCIM 2010, 12 h
Staphylococcus aureus [5] = experiment: Antibacterial activity against Staphylococcus aureus NCIM 2079 at 30 ug/ml measured after 12 hrs by spectrophotometric method; details: NCIM 2079, 12 h
Staphylococcus aureus [6] = experiment: Antibacterial activity against Staphylococcus aureus NCIM 2079 measured after 12 hrs by spectrophotometric method; details: NCIM 2079, 12 h
Bacillus subtilis [7] = experiment: Antibacterial activity against Bacillus subtilis NCIM 2010 at 30 ug/ml measured after 12 hrs by spectrophotometric method; details: NCIM 2010, 12 h
Staphylococcus aureus [8] = experiment: Antibacterial activity against Staphylococcus aureus NCIM 2079 at 10 ug/ml measured after 12 hrs by spectrophotometric method; details: NCIM 2079, 12 h
Pseudomonas aeruginosa [9] = experiment: Antibacterial activity against Pseudomonas aeruginosa NCIM 2036 measured after 8 hrs by spectrophotometric method; details: NCIM 2036, 8 h
Staphylococcus aureus [10] = experiment: Antibacterial activity against Staphylococcus aureus NCIM 2079 at 3 ug/ml measured after 12 hrs by spectrophotometric method; details: NCIM 2079, 12 h
Escherichia coli [11] = experiment: Antibacterial activity against Escherichia coli NCIM 2688 measured after 8 hrs by spectrophotometric method; details: NCIM 2688, 8 h
Bacillus subtilis [12] = experiment: Antibacterial activity against Bacillus subtilis NCIM 2010 at 10 ug/ml measured after 12 hrs by spectrophotometric method; details: NCIM 2010, 12 h
Pseudomonas aeruginosa [13] = experiment: Antibacterial activity against Pseudomonas aeruginosa NCIM 2036 at 3 ug/ml measured after 8 hrs by spectrophotometric method; details: NCIM 2036, 8 h
Escherichia coli [14] = experiment: Antibacterial activity against Escherichia coli NCIM 2688 at 30 ug/ml measured after 8 hrs by spectrophotometric method; details: NCIM 2688, 8 h
Pseudomonas aeruginosa [15] = experiment: Antibacterial activity against Pseudomonas aeruginosa NCIM 2036 at 30 ug/ml measured after 8 hrs by spectrophotometric method; details: NCIM 2036, 8 h
Pseudomonas aeruginosa [16] = experiment: Antibacterial activity against Pseudomonas aeruginosa NCIM 2036 at 10 ug/ml measured after 8 hrs by spectrophotometric method; details: NCIM 2036, 8 h
[17] = tested on: Mycobacterium tuberculosis; experiment: Antitubercular activity against dormant stage Mycobacterium tuberculosis H37Ra measured after 12 days by XTT assay; details: 288 h
[18] = tested on: Mycobacterium tuberculosis; experiment: Antitubercular activity against dormant stage Mycobacterium tuberculosis H37Ra at 30 ug/ml measured after 12 days by XTT assay; details: 288 h
[19] = tested on: Mycobacterium tuberculosis; experiment: Antitubercular activity against dormant stage Mycobacterium tuberculosis H37Ra at 3 ug/ml measured after 12 days by XTT assay; details: 288 h
Escherichia coli [20] = experiment: Antibacterial activity against Escherichia coli NCIM 2688 at 10 ug/ml measured after 8 hrs by spectrophotometric method; details: NCIM 2688, 8 h
[21] = tested on: Mycobacterium tuberculosis; experiment: Antitubercular activity against active stage Mycobacterium tuberculosis H37Ra measured after 8 days by XTT assay; details: 192 h

| Compound | inhibition at 10 µg/mL [1] [%] | IC50 (Bacillus subtilis [2]) [µg/mL] | MIC (Bacillus subtilis [2]) [µg/mL] | inhibition at 3 µg/mL (Escherichia coli [3]) [%] | inhibition at 3 µg/mL (Bacillus subtilis [4]) [%] | inhibition at 30 µg/mL (Staphylococcus aureus [5]) [%] | IC50 (Staphylococcus aureus [6]) [µg/mL] | MIC (Staphylococcus aureus [6]) [µg/mL] | inhibition at 30 µg/mL (Bacillus subtilis [7]) [%] | inhibition at 10 µg/mL (Staphylococcus aureus [8]) [%] | IC50 (Pseudomonas aeruginosa [9]) [µg/mL] | MIC (Pseudomonas aeruginosa [9]) [µg/mL] | inhibition at 3 µg/mL (Staphylococcus aureus [10]) [%] | IC50 (Escherichia coli [11]) [µg/mL] | MIC (Escherichia coli [11]) [µg/mL] | inhibition at 10 µg/mL (Bacillus subtilis [12]) [%] | inhibition at 3 µg/mL (Pseudomonas aeruginosa [13]) [%] | inhibition at 30 µg/mL (Escherichia coli [14]) [%] | inhibition at 30 µg/mL (Pseudomonas aeruginosa [15]) [%] | inhibition at 10 µg/mL (Pseudomonas aeruginosa [16]) [%] | further results |
| --- | --- | --- | --- | --- | --- | --- | --- | --- | --- | --- | --- | --- | --- | --- | --- | --- | --- | --- | --- | --- | --- |
| CC(=O)OCC(=O)NC[C@H]1CN(c2ccc(N3CC4(COC4)C3)c(F)c2)C(=O)O1 | 4.03 | > 100 | > 100 | 49.4 | 43.6 | 98.2 | 0.75 (≈ 1.84 µM) | 8.4 (≈ 20.6 µM) | 99.3 | 93.9 | > 100 | > 100 | 82.5 | > 100 | > 100 | 73.6 | 22.8 | 89.1 | 58.3 | 42.8 | IC50 [17]: 6.69 µg/mL (≈ 16.4 µM); MIC [17]: 10.6 µg/mL (≈ 26.1 µM); inhibition at 30 µg/mL [18]: 88.9%; inhibition at 3 µg/mL [19]: -16.6%; inhibition at 10 µg/mL (Escherichia coli [20]): 63.9%; IC50 [21]: 3.24 µg/mL (≈ 7.95 µM); MIC [21]: 7.8 µg/mL (≈ 19.1 µM) |
| NC[C@H]1CN(c2ccc(N3CC4(COC4)C3)c(F)c2)C(=O)O1 | 75.2 | > 100 | > 100 | 88 | 36.4 | 98.9 | 0.84 to 0.843 (≈ 2.73 to 2.74 µM) | 3.38 (≈ 11 µM) | 48.8 | 94.3 | > 100 | > 100 | 86.5 | 0.57 (≈ 1.85 µM) | 4.05 (≈ 13.2 µM) | 43.3 | 49.2 | 99.2 | 56.9 | 53.7 | IC50 [17]: 3.46 µg/mL (≈ 11.3 µM); MIC [17]: 11.3 µg/mL (≈ 36.9 µM); inhibition at 30 µg/mL [18]: 90.9%; inhibition at 3 µg/mL [19]: 15.2%; inhibition at 10 µg/mL (Escherichia coli [20]): 96.8%; IC50 [21]: 2.8 µg/mL (≈ 9.11 µM); MIC [21]: 18.3 µg/mL (≈ 59.4 µM) |
| O=C(NC[C@H]1CN(c2ccc(N3CC4(COC4)C3)c(F)c2)C(=O)O1)c1ccno1 | 18.2 | 0.49 (≈ 1.22 µM) | 2.35 (≈ 5.84 µM) | 88.3 | 90.5 | 98.5 | 0.88 (≈ 2.19 µM) | 2.05 (≈ 5.09 µM) | 100 | 98.2 | 0.51 (≈ 1.27 µM) | 2.57 (≈ 6.39 µM) | 95.1 | 0.71 to 0.72 (≈ 1.76 to 1.79 µM) | 4.56 to 4.6 (≈ 11.3 to 11.4 µM) | 97.3 | 90.8 | 99.9 | 98.9 | 94.9 | IC50 [17]: 9.58 µg/mL (≈ 23.8 µM); MIC [17]: 21.2 µg/mL (≈ 52.8 µM); inhibition at 30 µg/mL [18]: 95.4%; inhibition at 3 µg/mL [19]: 4.35%; inhibition at 10 µg/mL (Escherichia coli [20]): 93.3%; IC50 [21]: 6.4 µg/mL (≈ 15.9 µM); MIC [21]: 10.9 µg/mL (≈ 27.1 µM) |
| CC(=O)NC[C@H]1CN(c2ccc(N3CC4(COC4)C3)c(F)c2)C(=O)O1 | 94.7 | 0.65 (≈ 1.86 µM) | 3.46 (≈ 9.9 µM) | 3.06 | 88.8 | 99.5 | 0.53 (≈ 1.52 µM) | 2.9 (≈ 8.3 µM) | 100 | 91.8 | 0.58 (≈ 1.66 µM) | 6.4 (≈ 18.3 µM) | 90.4 | > 100 | > 100 | 95.4 | 85.5 | 28.8 | 98.5 | 91.9 | IC50 [17]: 2.07 µg/mL (≈ 5.93 µM); MIC [17]: 3.1 µg/mL (≈ 8.87 µM); inhibition at 30 µg/mL [18]: 95.2%; inhibition at 3 µg/mL [19]: 15.1%; inhibition at 10 µg/mL (Escherichia coli [20]): 17.4%; IC50 [21]: 1.56 µg/mL (≈ 4.47 µM); MIC [21]: 2.55 µg/mL (≈ 7.3 µM) |
| CC(=O)NC[C@H]1CN(c2ccc(C3=C[C@H]4CC[C@@H](C3)N4C(=O)OC(C)(C)C)c(F)c2)C(=O)O1 | 79.6 | 0.55 (≈ 1.2 µM) | 5.67 (≈ 12.3 µM) | 89.2 | 85.7 | 99.1 | 0.74 (≈ 1.61 µM) | 2.95 (≈ 6.42 µM) | 99.1 | 97.9 | 0.67 (≈ 1.46 µM) | 15.1 (≈ 32.8 µM) | 90.5 | 0.57 (≈ 1.24 µM) | 3.66 (≈ 7.96 µM) | 97.3 | 83.8 | 98.7 | 93.9 | 88.3 | IC50 [17]: 10.8 µg/mL (≈ 23.6 µM); MIC [17]: 20.5 µg/mL (≈ 44.6 µM); inhibition at 30 µg/mL [18]: 94.2%; inhibition at 3 µg/mL [19]: 34.8%; inhibition at 10 µg/mL (Escherichia coli [20]): 94.4%; IC50 [21]: 12.3 µg/mL (≈ 26.8 µM); MIC [21]: 21.4 µg/mL (≈ 46.6 µM) |
| CC(=O)N1CCC2(C1)CN(c1ccc(N3CCOCC3)c(F)c1)C(=O)O2 (centres undefined) | -8.05 | > 100 | > 100 | 36.2 | 23.9 | 53.6 | > 100 | > 100 | 42.2 | 50.2 | > 100 | > 100 | 45.2 | > 100 | > 100 | 32.2 | 42.8 | 46 | 56.2 | 48.4 | IC50 [17]: > 100 µg/mL; MIC [17]: > 100 µg/mL; inhibition at 30 µg/mL [18]: 12%; inhibition at 3 µg/mL [19]: 19.7%; inhibition at 10 µg/mL (Escherichia coli [20]): 42% |
| O=C1O[C@@H](CNC(=S)Nc2ccccc2F)CN1c1ccc(N2CC3(COC3)C2)c(F)c1 | 57.4 | 1.31 (≈ 2.84 µM) | 5.18 (≈ 11.2 µM) | 25 | 81 | 99.3 | 0.6 (≈ 1.3 µM) | 5.76 (≈ 12.5 µM) | 101 | 95.7 | 0.98 (≈ 2.13 µM) | 15.9 (≈ 34.5 µM) | 85.9 | > 100 | > 100 | 96.6 | 77.8 | 51.9 | 96 | 87.4 | IC50 [17]: 22.8 µg/mL (≈ 49.6 µM); MIC [17]: 41.6 µg/mL (≈ 90.4 µM); inhibition at 30 µg/mL [18]: 87.6%; inhibition at 3 µg/mL [19]: 25.1%; inhibition at 10 µg/mL (Escherichia coli [20]): 42.8%; IC50 [21]: 16.3 µg/mL (≈ 35.5 µM); MIC [21]: 41.1 µg/mL (≈ 89.3 µM) |
| CC(=O)NC[C@H]1CN(c2ccc(N3CCOCC3)c(F)c2)C(=O)O1 [LINEZOLID] | 96.6 | 0.64 (≈ 1.9 µM) | 1.8 (≈ 5.34 µM) | 99.3 | 98.9 | 99.1 | 0.42 (≈ 1.24 µM) | 1.13 (≈ 3.35 µM) | 99.8 | 99.5 | 0.49 (≈ 1.45 µM) | 1.31 (≈ 3.88 µM) | 99.5 | 0.49 (≈ 1.45 µM) | 1.15 (≈ 3.41 µM) | 99.4 | 99.2 | 100 | 99.9 | 99 | IC50 [17]: 0.71 µg/mL (≈ 2.1 µM); MIC [17]: 1.25 µg/mL (≈ 3.71 µM); inhibition at 30 µg/mL [18]: 95.5%; inhibition at 3 µg/mL [19]: 84%; inhibition at 10 µg/mL (Escherichia coli [20]): 99.8%; IC50 [21]: 0.8 µg/mL (≈ 2.37 µM); MIC [21]: 1.31 µg/mL (≈ 3.88 µM) |
